Assay results published in patent publication US20250049930A1, “PROTAC MOLECULES TARGETING FOXP3 AND USES THEREOF” (CEDARS-SINAI MEDICAL CENTER, priority 2022, published 2025).
Residues, ends and D or L forms follow the SMILES beside them. *: point of attachment. X1 = O=C1CCC(N2C(=O)c3cccc(*)c3C2=O)C(=O)N1; PEG4 = NCCOCCOCCOCCOCCC(=O)O

Target: cereblon (Homo sapiens, UniProt Q96SW2)
Experiment: SPR assay, binary complex
Format: binding
Details: 25° C., binary complex of cereblon and P-FoxP3
Description: The SPR assay for ternary complex cooperativity was performed by BOC Sciences who provided the following details: Various concentrations of cereblon were dissolved in water and manually printed onto the 47 nm gold-coated PlexArray Nanocapture Sensor Chip (Plexera Bioscience, Seattle, WA) at 40% humidity. Each concentration was printed in replicate, and each spot contained […] of sample solution. The chip was incubated overnight in 80% humidity at 4° C., and rinsed with 10×PBST for 10 minutes, 1×PBST for 10 minutes, and deionized water twice for 10 minutes. The chip was then blocked with 5% non-fat milk in water overnight, washed as before, and then dried under a stream of nitrogen.
SPR imaging measurements were performed with PlexAray HT (Plexera Bioscience, Seattle, WA, US). Buffers and samples were injected by a non-pulsatile piston pump into the 30 μL flow cell. […] The signal changes after binding and washing (in AU) are recorded as the assay value. Selected protein-grafted regions in the SPR images were analyzed, and the average reflectivity variations of the chosen areas were plotted as a function of time. Real-time binding signals were recorded and analyzed by Data Analysis Module (DAM, Plexera Bioscience, Seattle, WA, US). […]

cereblon, sequence (Q96SW2 whole entry): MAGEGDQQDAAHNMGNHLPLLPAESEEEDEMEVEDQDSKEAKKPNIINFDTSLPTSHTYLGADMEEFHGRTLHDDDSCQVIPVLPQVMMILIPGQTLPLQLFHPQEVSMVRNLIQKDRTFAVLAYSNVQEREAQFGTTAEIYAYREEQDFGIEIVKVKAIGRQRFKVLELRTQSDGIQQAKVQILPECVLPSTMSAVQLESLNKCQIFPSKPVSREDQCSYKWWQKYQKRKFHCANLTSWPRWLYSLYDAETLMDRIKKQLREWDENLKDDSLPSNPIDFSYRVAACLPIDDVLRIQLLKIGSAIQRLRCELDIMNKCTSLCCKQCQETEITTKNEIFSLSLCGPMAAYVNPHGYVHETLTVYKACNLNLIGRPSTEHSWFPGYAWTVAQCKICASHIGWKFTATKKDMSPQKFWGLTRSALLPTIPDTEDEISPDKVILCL

CSCC[C@H](NC(=O)[C@H](C)NC(=O)[C@H](Cc1ccccc1)NC(=O)[C@H](Cc1ccccc1)NC(=O)[C@@H]1CCCN1C(=O)[C@H](Cc1c[nH]c2ccccc12)NC(=O)[C@H](CCSC)NC(=O)[C@H](CCCCN)NC(=O)[C@H](CCCNC(=N)N)NC(=O)[C@H](Cc1ccccc1)NC(=O)[C@H](CO)NC(=O)[C@H](CCC(N)=O)NC(=O)[C@H](Cc1ccccc1)NC(=O)[C@H](CC(=O)O)NC(=O)[C@H](CCCNC(=N)N)NC(=O)CCOCCOCCOCCOCCNc1cccc2c1C(=O)N(C1CCC(=O)NC1=O)C2=O)C(=O)O (stereo partly shown) [PF, Pomalidomide-PEG4-RDFQSFRKMWPFFAM] ({X1-PEG4}-RDFQSFRKMWPFFAM-OH)
Kd: 987 nM
